Calls of active or inactive are those of the source. The rule behind the calls is not given here.
Assays:
Bacillus cereus [1] = assay: Inhibition of Bacillus cereus sphingomyelinase expressed in Bacillus subtilis ISW1214 assessed as sphingomyeline liposome degradation at 20 to 100 uM after 30 mins
Bacillus cereus [2] = assay: Inhibition of Bacillus cereus sphingomyelinase expressed in Bacillus subtilis ISW1214 assessed as sphingomyeline liposome degradation after 30 mins
[3] = Competitive inhibition of Bacillus cereus sphingomyelinase expressed in Bacillus subtilis ISW1214 after 30 mins by Lineweaver-Burke plot analysis
[4] = Inhibition of Bacillus cereus sphingomyelinase expressed in Bacillus subtilis ISW1214 assessed as [14C]sphingomyeline hydrolysis after 30 mins by liquid scintillation counting

inhibition (Bacillus cereus [1]) | inhibition (Bacillus cereus [2]) | Ki [3] | IC50 [4] | SMILES
inactive | – | – | – | CCCCCCCCCCCCC/C=C/[C@@H](OCc1cccc(-c2ccccn2)n1)[C@H](CO)NC(=O)CCCCC
– | Dose-dependent effect | 5.2 µM | 1.2 µM | CCCCCCCCCCCCC/C=C/[C@@H](O)[C@H](COCc1cccc(-c2ccccn2)n1)NC(=O)CCCCC
inactive | – | – | – | c1ccc(-c2ccccn2)nc1
